Laboratory results published in patent US10052310B2, “Separase inhibitors and uses thereof” (Baylor College of Medicine, priority 2013, dated 2018).
pIC50: −log10 of the molar value.

Key:
[1] = test system: Raji; assay: MTT in vitro cytotoxicity assay; format: cell-based; details: Homo sapiens, Leukemia, 72 h, read-out: IC50 growth inhibition
Protocol: (§1) The inhibitory effect of Sepin-1 on cell growth was assayed using the 3-(4,5-dimethylthiazol-2yl)-2,5-diphenyl-tetrazolium bromide (MTT) colorimetric dye reduction method (Cancer Chemother. Pharmacol., 2006, 58, 13-23). One hundred thirty-five μl of exponentially growing cancer cells were plated at a density of 0.4-1.0×10^5 cells/well in a 96-well microtiter plate. After 16 h, Sepin-1 at specified concentrations was added to each well. After 72 h of continuous drug exposure, 15 μl of 5 mg/ml MTT was added to each well and the plates were incubated for 4 h at 37° C. Medium was replaced with 150 μl of DMSO to solubilize the formazan, and the optical density (OD) was measured at 550 nm using a microplate spectrophotometer (Anthos Analytical, Durham, N.C., USA). Cell viability was calculated by subtracting the background OD of media alone from the OD of test wells, then dividing by the OD of the control (untreated) wells. Replicates of 3 wells were used for each drug concentration. The in vitro cytotoxicity assay was repeated once and the IC50 reported was the average of two independent experiments.

[2] = test system: A549; assay: MTT in vitro cytotoxicity assay; format: cell-based; details: Homo sapiens, A549, Lung, 72 h, read-out: IC50 growth inhibition
Protocol: as §1

[3] = test system: SHEP; assay: MTT in vitro cytotoxicity assay; format: cell-based; details: Homo sapiens, Neuroblastoma, 72 h, read-out: IC50 growth inhibition
Protocol: as §1

[4] = test system: SK-N-BE(2); assay: MTT in vitro cytotoxicity assay; format: cell-based; details: Homo sapiens, SKNBE2, Neuroblastoma, 72 h, read-out: IC50 growth inhibition
Protocol: as §1

[5] = test system: TT; assay: MTT in vitro cytotoxicity assay; format: cell-based; details: Homo sapiens, Thyroid, 72 h, read-out: IC50 growth inhibition
Protocol: as §1

[6] = test system: IMR-32; assay: MTT in vitro cytotoxicity assay; format: cell-based; details: Homo sapiens, IMR-32, Neuroblastoma, 72 h, read-out: IC50 growth inhibition
Protocol: as §1

[7] = test system: LAN-5; assay: MTT in vitro cytotoxicity assay; format: cell-based; details: Homo sapiens, LA-N-5, LAN-5, Neuroblastoma, 72 h, read-out: IC50 growth inhibition
Protocol: as §1

[8] = test system: HBL100; assay: MTT in vitro cytotoxicity assay; format: cell-based; details: Homo sapiens, HBL-100, HBL100, Breast, 72 h, read-out: IC50 growth inhibition
Protocol: as §1

[9] = test system: SY5Y; assay: MTT in vitro cytotoxicity assay; format: cell-based; details: Homo sapiens, Neuroblastoma, 72 h, read-out: IC50 growth inhibition
Protocol: as §1

[10] = test system: MCF10F; assay: MTT in vitro cytotoxicity assay; format: cell-based; details: Homo sapiens, MCF-10F, Breast, 72 h, read-out: IC50 growth inhibition
Protocol: as §1

[11] = test system: MDAMB231; assay: MTT in vitro cytotoxicity assay; format: cell-based; details: Homo sapiens, MDA-MB-231, MDAMB231, Breast, 72 h, read-out: IC50 growth inhibition
Protocol: as §1

[12] = test system: Molt4; assay: MTT in vitro cytotoxicity assay; format: cell-based; details: Homo sapiens, MOLT-4, Molt4, Leukemia, 72 h, read-out: IC50 growth inhibition
Protocol: as §1

[13] = test system: SK-N-AS; assay: MTT in vitro cytotoxicity assay; format: cell-based; details: Homo sapiens, Neuroblastoma, 72 h, read-out: IC50 growth inhibition
Protocol: as §1

[14] = test system: NGP; assay: MTT in vitro cytotoxicity assay; format: cell-based; details: Homo sapiens, Neuroblastoma, 72 h, read-out: IC50 growth inhibition
Protocol: as §1

[15] = test system: T47D; assay: MTT in vitro cytotoxicity assay; format: cell-based; details: Homo sapiens, Breast, 72 h, read-out: IC50 growth inhibition
Protocol: as §1

[16] = test system: Jurkat; assay: MTT in vitro cytotoxicity assay; format: cell-based; details: Homo sapiens, Leukemia, 72 h, read-out: IC50 growth inhibition
Protocol: as §1

[17] = test system: HCT116; assay: MTT in vitro cytotoxicity assay; format: cell-based; details: Homo sapiens, HCT-116, HCT116, Colon, 72 h, read-out: IC50 growth inhibition
Protocol: as §1

[18] = test system: MDA436; assay: MTT in vitro cytotoxicity assay; format: cell-based; details: Homo sapiens, MDA436, Breast, 72 h, read-out: IC50 growth inhibition
Protocol: as §1

[19] = test system: CHP212; assay: MTT in vitro cytotoxicity assay; format: cell-based; details: Homo sapiens, CHP-212, CHP212, Neuroblastoma, 72 h, read-out: IC50 growth inhibition
Protocol: as §1

[20] = test system: HL60; assay: MTT in vitro cytotoxicity assay; format: cell-based; details: Homo sapiens, HL-60, HL60, Leukemia, 72 h, read-out: IC50 growth inhibition
Protocol: as §1

[21] = test system: KCNR; assay: MTT in vitro cytotoxicity assay; format: cell-based; details: Homo sapiens, Neuroblastoma, 72 h, read-out: IC50 growth inhibition
Protocol: as §1

[22] = test system: SK-BR-3; assay: MTT in vitro cytotoxicity assay; format: cell-based; details: Homo sapiens, SK-BR-3, Breast, 72 h, read-out: IC50 growth inhibition
Protocol: as §1

[23] = test system: JM1; assay: MTT in vitro cytotoxicity assay; format: cell-based; details: Homo sapiens, JM1, Leukemia, 72 h, read-out: IC50 growth inhibition
Protocol: as §1

[24] = test system: CHLA-02-ATRT; assay: MTT in vitro cytotoxicity assay; format: cell-based; details: Homo sapiens, Brain, 72 h, read-out: IC50 growth inhibition
Protocol: as §1

[25] = test system: C57B6 mice; assay: Toxicity of Sepin-1 in mice, single intravenous dose; format: in vivo
Protocol: To investigate the toxicity in mice, Applicants injected Sepin-1 at a single dose in the range of 50-100 mg/kg body weight into C57B6 mice via tail vein.
Based on the above results, Applicants expanded this study to identify the Severely Toxic Dose (i.e., dose that causes death or irreversible severe toxicity, in 10% of rodents, STD10) using more mice injected at 75 to 90 mg/Kg range. A dose of 80 mg/Kg was estimated as STD10 for Sepin-1 in these mice.
To test Maximum Tolerated Dose (MTD) and No Observable Effect Level (NOEL) of Sepin-1, Applicants applied 200 μl Sepin-1 (diluted in PBS) one time at an acute dose range of 50 to 100 mg/kg body weight to 8-10 weeks old C57B6 mice (˜25 g) through intravenous tail vein injection (n=3/group). Except for the MTD dose, after Sepin-1 injection, the mice were returned to the cage and their reaction to the drug was monitored from one week to several months. Complete necropsy, blood chemistry and pathology of the Sepin-1 injected mice were carried out by the Comparative Pathology Laboratory at the Baylor College of Medicine.

[26] = <80 mg/kg single dose via tail vein

In the case of CC1(C)[N+]([O-])=c2ccc([N+](=O)[O-])cc2=[N+]1[O-] [Sepin-1, 2,2-dimethyl-5-nitro-2H-benzimidazole-1,3 dioxide], the pIC50 [1] was 5.36, the pIC50 [2] was 4.27 and the pIC50 [3] was 4.20. It also gave a pIC50 [4] of 5.07, a pIC50 [5] of 4.47 and a pIC50 [6] of 5.32. For the same compound, the pIC50 [7] was 5.30, the pIC50 [8] was 4.94 and the pIC50 [9] was 5.31. For the same compound, the pIC50 [10] was 4.32, the pIC50 [11] was 4.67 and the pIC50 [12] was 5.49. The pIC50 [13] was 4.77, the pIC50 [14] was 5.11 and the pIC50 [15] was 4.51. The pIC50 [16] was 4.85, the pIC50 [17] was 4.80 and the pIC50 [18] was 4.75. For the same compound, the pIC50 [19] was 5.05, the pIC50 [20] was 5.05 and the pIC50 [21] was 5.31. It also gave a pIC50 [22] of 5.05, a pIC50 [23] of 6.00 and a pIC50 [24] of 5.12. For the same compound, the “time to death after injection” value ([25]; 90 mg/kg single dose via tail vein) was 30 to 90 min, the “effect of dose <80 mg/kg” value [25, 26] was “no apparent effect” and the survival after injection [25, 26] was “over 6 months”. The “Severely Toxic Dose in 10% of rodents (STD10)” value ([25]; mice injected at 75 to 90 mg/Kg range) was 80 mg/kg and the “histopathology of major organs” value ([25]; mouse, in vivo) was “no significant lesions in major organs”.
